Measurements taken from publication PMC4635624, “In vitro and in vivo single-agent efficacy of checkpoint kinase inhibition in acute lymphoblastic leukemia” (Journal of Hematology & Oncology, 2015).
Several values for one entry are separate records, joined by “and”; a condition that tells them apart may be missing. Identical values can stand only once. Like-named read-outs stand apart in the source and are kept apart here.

What was measured:
Assay type in all cases: cell-based, human
[1] = system: c-Jun in B-/T-ALL cell lines; test: Western blot against c-Jun; settings: after treatment; response heterogeneous in T-ALL cell lines
Description: In order to identify gene expression changes specifically correlated with Chk1 inhibition and to better elucidate the mechanism of action of Chk1 inhibitor, gene expression profiling (GEP) analysis was performed by microarray on treated B/T-ALL cell lines (BV-173, SUP-B15, REH, NALM-6, NALM-19, MOLT-4, RPMI-8402, and CCRF-CEM) and on their untreated counterparts (DMSO 0.1 %) after 24 h of drug exposure. […] To identify peculiar critical pathways affected by Chk1 inhibition, the differentially expressed genes were analyzed in terms of biological function using the MetaCore pathway mapping software (GeneGo Inc.) which categorizes genes in pathway maps, Gene Ontology (GO) cellular processes, and cellular and molecular process networks. […] Finally, the three top scored process networks impaired by the treatment with Chk1 inhibitor were as follows: the DNA damage checkpoint, the S phase of cell cycle, and the apoptosis, confirming the specificity of treatment on its target pathways (Additional file 4). […]
To gain insight into the molecular mechanisms responsible for cell death following treatment, functional analyses by Western blot were performed. […] Finally, all these antibodies were detected using the enhanced chemiluminescence kit ECL (GE) and the compact darkroom ChemiDoc-It (UVP).

BV-173 cells = test: γ-H2A.X immunofluorescence analysis
Description: The so-called hyper-γ-H2A.X-positive cells loose the typical foci signal of γ-H2A.X and emit a much higher and diffuse signal of γ-H2A.X positivity.
NALM-6 and BV-173 cells were seeded to poly-D lysine-coated slides, fixed with 4 % PFA (paraformaldehyde), and stained at 37 °C with a mouse anti-H2A.X-Phosphorylated Alexa 647 conjugated antibody (BioLegend). Then, they were treated with DAPI (4.6 diamidino-2-phenylindole; Sigma Aldrich), and the slides were mounted with Mowiol (Calbiochem). Images were acquired with wide field fluorescence microscope Olympus BX61 fully motorized driven by Metamorph software, and the analysis was performed using the freeware ImageJ software.

primary ALL blast cells = test: Ex-vivo viability of primary leukemia cells (trypan blue dye exclusion)
Description: The efficacy of PF-00477736 was confirmed in primary blast cells from 14 newly diagnosed cases including ten BCR-ABL1-positive (71 %) cases and four BCR-ABL1-negative ALL cases (29 %). Leukemic cells were incubated with increasing concentrations of drug (0.1, 0.5, and 1 μM) for 24 h. […]
In order to assess the cell viability after treatment with PF-00477736 (Pfizer), ALL cell lines were seeded in 96-well plates at 50,000 cell/100 μl/well with increasing concentrations of drug (0.005–2 μM) for 24 and 48 h and incubated at 37 °C. Cell viability was assessed by adding WST-1 reagent (Roche Applied Science, Basel, Switzerland) to the culture medium at 1:10 dilution. Cells were incubated at 37 °C, and the optical density was measured by microplate ELISA reader at λ = 450 after 3 h. […] In ex-vivo primary leukemia cells, the effects on cell viability were assessed by counting viable and non-viable cell numbers by the trypan blue dye exclusion method. […] Cellular viability was calculated as a percentage of the viable cells compared to the untreated controls (DMSO 0.1 %).

## Cn1cc(-c2[nH]c3cc(NC(=O)[C@H](N)C4CCCCC4)cc4c3c2C=NNC4=O)cn1 [PF-00477736]
[1]
  c-Jun protein levels: c-Jun protein levels increased in all B-ALL cell lines
BV-173 cells; BV-173 γ-H2A.X positive cells
  fold change of mean value intensity of γ-H2A.X, treated vs untreated: five-fold
BV-173 cells; treated cells, 1.8 % in the untreated controls
  hyper-γ-H2A.X-positive cells among γ-H2A.X-positive cells: ~6.5%
Primary ALL blast cells; primary ALL sample of one patient per table row (ID in c1), class of IC50 at 24 hours, read-out: Sensitivity
  IC50: 500 to 1000 nM and 100 to 500 nM
Primary ALL blast cells; primary blast cells, 21 % (3/14) of cases, 24 h, read-out: IC50 at 24 h, poor responders
  IC50: > 1000 nM
